From publication PMC7195589 (Journal of Ginseng Research, 2019)

Target: muscle-type creatine kinase (CK-MM) (Homo sapiens, UniProt P06732)
Assay: BLI direct binding response at […]

muscle-type creatine kinase (CK-MM), sequence (P06732 whole entry): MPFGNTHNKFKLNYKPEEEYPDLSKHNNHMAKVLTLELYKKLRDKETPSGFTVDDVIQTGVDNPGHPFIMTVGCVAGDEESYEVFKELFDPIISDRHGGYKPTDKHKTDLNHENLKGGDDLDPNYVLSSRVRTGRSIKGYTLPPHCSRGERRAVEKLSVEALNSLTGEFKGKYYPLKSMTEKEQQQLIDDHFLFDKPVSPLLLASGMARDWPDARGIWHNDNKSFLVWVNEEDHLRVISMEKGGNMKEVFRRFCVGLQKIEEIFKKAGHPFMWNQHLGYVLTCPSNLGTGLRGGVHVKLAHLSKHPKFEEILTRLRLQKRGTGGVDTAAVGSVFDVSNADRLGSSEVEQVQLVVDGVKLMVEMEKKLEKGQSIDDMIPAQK

Row | Compound | BLI direct binding response at 300 uM (no KD)
1 | CC(C)=CCC[C@](C)(O[C@@H]1O[C@H](CO)[C@@H](O)[C@H](O)[C@H]1O)[C@H]1CC[C@]2(C)[C@@H]1[C@H](O)C[C@@H]1[C@@]3(C)CC[C@H](O)C(C)(C)[C@@H]3CC[C@]12C [GK, ginsenoside compound K] | F1, Rh2, K, and their aglycones (PPT and PPD) displayed gradually direct interaction with CK-MM
2 | CC(C)=CCC[C@](C)(O)[C@H]1CC[C@]2(C)[C@@H]1[C@H](O)C[C@@H]1[C@@]3(C)CC[C@H](O)C(C)(C)[C@@H]3[C@@H](O)C[C@]12C [PPT, 20(S)-protopanaxatriol] | F1, Rh2, K, and their aglycones (PPT and PPD) displayed gradually direct interaction with CK-MM
3 | CC(C)=CCC[C@](C)(O)[C@H]1CC[C@]2(C)[C@@H]1[C@H](O)C[C@@H]1[C@@]3(C)CC[C@H](O[C@@H]4O[C@H](CO)[C@@H](O)[C@H](O)[C@H]4O)C(C)(C)[C@@H]3CC[C@]12C [Rh2, ginsenoside Rh2] | F1, Rh2, K, and their aglycones (PPT and PPD) displayed gradually direct interaction with CK-MM
